# No end group written: not given here.
# What was measured:
# [1] = system: collagenase (Clostridiopeptidase A); assay: Protease activation of nanoparticles (TAMRA dequenching), collagenase; format: biochemical; settings: 25 μM; collagenase 20 μg/ml
# Recombinant MMP-2 = target: T1, Recombinant MMP-2 (Homo sapiens, UniProt P08253); assay: Protease activation of nanoparticles (TAMRA dequenching), MMP-2; settings: 25 μM; MMP-2 2.5 μg/ml
# T1 sequence (P08253 110-660): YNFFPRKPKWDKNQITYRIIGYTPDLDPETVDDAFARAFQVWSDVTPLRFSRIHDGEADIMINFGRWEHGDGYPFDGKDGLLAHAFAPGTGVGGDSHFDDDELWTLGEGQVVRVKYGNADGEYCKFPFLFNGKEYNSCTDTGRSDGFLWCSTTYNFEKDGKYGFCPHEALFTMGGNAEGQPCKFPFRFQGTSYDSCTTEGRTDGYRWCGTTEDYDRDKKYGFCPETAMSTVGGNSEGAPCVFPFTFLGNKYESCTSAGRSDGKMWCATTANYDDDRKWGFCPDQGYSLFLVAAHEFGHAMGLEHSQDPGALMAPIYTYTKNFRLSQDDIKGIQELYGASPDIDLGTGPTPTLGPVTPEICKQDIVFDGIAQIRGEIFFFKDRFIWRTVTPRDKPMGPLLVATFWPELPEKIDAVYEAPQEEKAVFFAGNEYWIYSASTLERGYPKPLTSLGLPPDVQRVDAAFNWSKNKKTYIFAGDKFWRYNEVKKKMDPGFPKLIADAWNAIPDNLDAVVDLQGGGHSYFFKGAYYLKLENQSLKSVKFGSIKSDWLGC
# Description: Activation was monitored by the release of TAMRA quenching at an excitation of 515 nm and emission of 580 nm.
# [2] = target: Nucleolin on the surface of HeLa cells (UniProt P19338); assay: cell-based or functional assay
# HeLa cells = assay: QD internalization in HeLa cell monolayers, flow cytometry (Example 8); format: cell-based; settings: free peptide 1 μM to 1 mM added with 50 nM F3-QDs
# Description: After four hours, cells were washed with media, treated with trypsin (0.25%) and EDTA, and resuspended in 1% BSA (in PBS) for flow cytometry (BD FACSort, FL1 for EGFP signal and FL3 for QD signal). Fluorescence data on 10,000 cells were collected for each sample and the geometric mean of intensity was reported.
# [3] = system: Free MMP-2 cleavable peptide substrate NH2-G-K(TAMRA)-G-P-L-G-V-R-G-C-CONH2
# [4] = system: Peptide-PEG (MMP-2 cleavable L-AA substrate coupled to 10 kDa PEG) immobilized on dextran-coated iron oxide nanoparticles
# Glioblastoma cells = assay: Photoactivation of endosomal escape in glioblastoma cells; format: cell-based
# Experimental: Fluorescein labeled CAR peptide ([…]) was synthesized using an ABI Model 433A peptide synthesizer from Biopolymers Laboratory, the MIT Center for Cancer Research. The peptide was cyclized by bubbling air into an aqueous solution of the peptide at 0.1 mg/ml overnight. Complete cyclization was confirmed by mass spectrometry and HPLC analysis.
# Glioblastoma cells were obtained from the laboratory of Phil Sharp (MIT). The cyclized peptide (cCAR) was incubated with cells for 2 hours at 37° C. in complete culture medium (DMEM supplemented with serum, streptomycin, penicillin and fungizone). A monolayer of the cells was then rinsed with warm media three times. Microscopy photographs were taken after overnight incubation of the cells. For activation of photosensitizer, Arc lamp light from a microscope was irradiated onto the cells for two minutes.
# Chain of Nucleolin on the surface of HeLa cells (P19338 2-710 limits assumed): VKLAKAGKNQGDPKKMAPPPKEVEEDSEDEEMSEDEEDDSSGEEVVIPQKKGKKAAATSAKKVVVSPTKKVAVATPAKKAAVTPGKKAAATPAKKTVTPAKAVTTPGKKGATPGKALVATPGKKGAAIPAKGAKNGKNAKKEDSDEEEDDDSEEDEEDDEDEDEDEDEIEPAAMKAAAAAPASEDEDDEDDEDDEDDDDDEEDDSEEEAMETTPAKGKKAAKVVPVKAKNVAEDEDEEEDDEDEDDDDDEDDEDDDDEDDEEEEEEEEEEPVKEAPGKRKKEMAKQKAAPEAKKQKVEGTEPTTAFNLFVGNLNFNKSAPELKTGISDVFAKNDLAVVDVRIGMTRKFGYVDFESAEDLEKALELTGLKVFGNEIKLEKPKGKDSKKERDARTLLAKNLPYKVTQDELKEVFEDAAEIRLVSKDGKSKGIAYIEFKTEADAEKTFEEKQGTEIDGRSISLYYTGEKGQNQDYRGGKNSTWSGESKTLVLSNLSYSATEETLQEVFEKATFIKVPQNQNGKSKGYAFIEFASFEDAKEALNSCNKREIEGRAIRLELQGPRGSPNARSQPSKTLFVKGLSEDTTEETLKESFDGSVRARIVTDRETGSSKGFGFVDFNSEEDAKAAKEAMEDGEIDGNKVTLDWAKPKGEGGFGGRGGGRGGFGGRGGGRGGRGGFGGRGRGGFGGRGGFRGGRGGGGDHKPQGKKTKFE
molecule,measurement,setting,value
CNC(=O)[C@H](Cc1c[nH]c2ccccc12)NC(=O)[C@@H](CC(=O)NO)CC(C)C [Galardin],inhibition of nanoparticle activation (peptide-PEG cleavage),[1],inhibits activation
same,inhibition of nanoparticle activation (peptide-PEG cleavage),Recombinant MMP-2,inhibits activation
F3-QD (F3 peptide C[Ahx]… conjugated to PEG-amino quantum dots),QD uptake by HeLa cells (flow cytometry) (orders of magnitude),[2],2
Lys-Ala-Arg-Glu-Cys (KAREC; printed: Lys-Ala-Arg-Glu-Cys) [KAREC peptide],inhibition of F3-QD uptake by free peptide,HeLa cells,minimal
Recombinant MMP-2,"Kcat/Km (cleavage of the substrate by MMP-2 over time, fluorescamine assay)",[3],8.42 and 26.7 µM^-1 hr^-1 respectively
same,"Kcat/Km (cleavage of the substrate by MMP-2 over time, TAMRA dequenching)",[4],8.42 and 26.7 µM^-1 hr^-1 respectively
same,fold reduction of MMP-2 Kcat/Km against the free peptide,[4],"reduces its associated MMP-2 Kcat/Km within a practical range, 3.2 fold"
"cyclic CAR peptide: Fluorescein labeled, cyclized CAR peptide (CARSKNKDC), binds heparan sulfate proteoglycans (also: fluorescein label, position not given here, cyclized, bond type not given here)",internalization into cells,"Glioblastoma cells; 2 hours at 37° C., without light irradiation",internalized
same,endosomal escape upon light irradiation,Glioblastoma cells; Arc lamp light irradiation,distributed evenly inside cells

# From US20080213377A1, “Delivery of Nanoparticles and/or Agents to Cells” (priority 2006, published 2008)
